Experimental data published in patent publication US8017612B2, “Piperazine compound and use thereof as a HCV polymerase inhibitor” (priority 2006, dated 2011).
Structures can show the parent of a compound that is named as a salt.

Columns and labels:
[1] = target: T1, HCV polymerase (NS5B) type 1b (Hepatitis C virus genotype 1b, UniProt P26663); assay: Assay of enzyme (HCV polymerase) inhibitory activity, type 1b enzyme; format: biochemical, HCV BK strain (type 1b)
T1 construct: a region encoding NS5B (J Virol 1991 March, 65(3), 1105-13, 544 amino acids after deletion of 47 amino acids on the C-terminal); 6xHis (C); made in house; host or cells: Escherichia coli
How it was run: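 His-tagged, C-terminally truncated NS5B (BK strain, 1b; 0.5 μg/ml) incubated with compound 60 min at 25 °C on 3′UTR-derived substrate RNA (5 μg/ml), 50 μM ATP/GTP/CTP, 2 μM UTP plus [3H]UTP, pH 7.5. Acid-precipitated RNA counted; IC50 from radioactivity with and without compound.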

[2] = target: T2, HCV polymerase (NS5B) type 1a (Hepatitis C virus genotype 1a, UniProt P26664); assay: Assay of enzyme (HCV polymerase) inhibitory activity, type 1a enzyme; format: biochemical, HCV type 1a (cloned from the blood of patients)
T2 construct: made in house; host or cells: Escherichia coli (by the 'similar method' of the 1b enzyme)
How it was run: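 His-tagged NS5B, C-terminal 47 residues deleted, type 1a at 1.5 μg/ml, with 5 μg/ml HCV 3′UTR substrate RNA, 50 μM ATP/GTP/CTP, 2 μM UTP plus [3H]UTP, pH 7.5 Tris, 5 mM MgCl2; 60 min at 25° C. TCA-precipitated RNA counted by scintillation; IC50 from radioactivity with vs. without compound.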

[3] = HCV polymerase inhibitory activity (IC50), 1b, type 1b enzyme 0.5 μg/ml, 25° C., 60 min
[4] = HCV polymerase inhibitory activity (IC50), 1a, type 1a enzyme 1.5 μg/ml, 25° C., 60 min
[5] = HCV polymerase inhibitory activity IC50, 1b, type 1b enzyme
[6] = HCV polymerase inhibitory activity IC50, 1a, type 1a enzyme

Row | SMILES | IC50 [1, 3] [nM] | IC50 [2, 4] [nM] | IC50 [1, 5] [nM] | IC50 [2, 6] [nM]
1 | CC(=O)N1CCN(S(=O)(=O)c2ccc(OC(F)(F)F)cc2)[C@@H](C(=O)NCc2cccc(O)c2)C1 [Example 637, (R)-4-acetyl-1-(4-trifluoromethoxy-benzenesulfonyl)-piperazine-2-carboxylic acid 3-hydroxy-benzylamide] | > 1000 | > 1000 | – | –
2 | CN(C)c1ccc(CNC(=O)C2CN(C(=O)Cc3ccccn3)CCN2S(=O)(=O)c2ccc(I)cc2)cc1 (stereo not shown) [Example 153, 1-(4-iodo-benzenesulfonyl)-4-(2-pyridin-2-yl-acetyl)-piperazine-2-carboxylic acid 4-dimethylamino-benzylamide] | > 1000 | > 1000 | – | –
3 | CCOc1ccc(CNC(=O)[C@H]2CN(c3nc(C)c(C(=O)O)s3)CCN2S(=O)(=O)c2ccc(OC(F)(F)F)cc2)cc1 [Example 442, 2-[(R)-3-(4-ethoxy-benzylcarbamoyl)-4-(4-trifluoromethoxy-benzenesulfonyl)-piperazin-1-yl]-4-methyl-thiazole-5-carboxylic acid] | < 100 | 100 to 1000 | – | –
4 | CC(C)c1ccc(CNC(=O)[C@H]2CN(c3ncc(C(=O)O)cn3)CCN2S(=O)(=O)c2ccc(C(F)(F)F)cc2)cc1 [Example 342, 2-[(R)-3-(4-isopropyl-benzylcarbamoyl)-4-(4-trifluoromethyl-benzenesulfonyl)-piperazin-1-yl]-pyrimidine-5-carboxylic acid] | 100 to 1000 | > 1000 | – | –
5 | CC(C)c1ccc(CNC(=O)[C@H]2CN(C(=O)Nc3cccc(Cl)c3)CCN2S(=O)(=O)c2ccc(C(F)(F)F)cc2)cc1 [Example 270, (R)-4-(4-trifluoromethyl-benzenesulfonyl)-piperazine-1,3-dicarboxylic acid 1-[(3-chloro-phenyl)-amide] 3-(4-isopropyl-benzylamide)] | 100 to 1000 | > 1000 | – | –
6 | O=C(NCc1ccc(OC(F)(F)F)cc1)[C@H]1CN(c2nc3nc(C4CC4)[nH]c(=O)c3s2)CCN1S(=O)(=O)c1ccc(C(F)(F)F)cc1 [Example 1107, (R)-4-(5-cyclopropyl-7-oxo-6,7-dihydro-thiazolo[4,5-d]pyrimidin-2-yl)-1-(4-trifluoromethyl-benzenesulfonyl)-piperazine-2-carboxylic acid 4-trifluoromethoxy-benzylamide] | – | – | < 100 | 100 to 1000
7 | CC(C)(C)c1ccc(CNC(=O)[C@H]2CN(c3nc4cc[nH]c(=O)c4s3)CCN2S(=O)(=O)c2ccc(OC(F)(F)F)cc2)cc1 [Example 597, (R)-4-(4-oxo-4,5-dihydro-thiazolo[5,4-c]pyridin-2-yl)-1-(4-trifluoromethoxy-benzenesulfonyl)-piperazine-2-carboxylic acid 4-tert-butyl-benzylamide] | < 100 | < 100 | – | –
8 | CC(C)(C)c1ccc(CNC(=O)[C@H]2CN(c3cnc(CN4CCOCC4)cn3)CCN2S(=O)(=O)c2ccc(OC(F)(F)F)cc2)cc1 [Example 593, (R)-5′-morpholin-4-ylmethyl-4-(4-trifluoromethoxy-benzenesulfonyl)-3,4,5,6-tetrahydro-2H-[1,2′]bipyrazinyl-3-carboxylic acid 4-tert-butyl-benzylamide] | < 100 | < 100 | – | –
9 | CC(=O)N1CCN(S(=O)(=O)c2ccc(Br)c(F)c2)[C@@H](C(=O)NCc2ccc(C(C)C)cc2)C1 [Example 469, (R)-4-acetyl-1-(4-bromo-3-fluoro-benzenesulfonyl)-piperazine-2-carboxylic acid 4-isopropyl-benzylamide] | 100 to 1000 | 100 to 1000 | – | –
10 | CCCc1ccc(CNC(=O)[C@H]2CN(c3cnc(C(=O)O)cn3)CCN2S(=O)(=O)c2ccc(Br)cc2)cc1 [Example 687, (R)-4-(4-bromo-benzenesulfonyl)-3-(4-propyl-benzylcarbamoyl)-3,4,5,6-tetrahydro-2H-[1,2′]bipyrazinyl-5′-carboxylic acid] | – | – | < 100 | < 100
11 | CCCc1ccc(S(=O)(=O)N2CCN(c3cnc(C(=O)O)cn3)C[C@@H]2C(=O)NCc2ccc(CCC)cc2C)cc1 [Example 441, (R)-3-(2-methyl-4-propyl-benzylcarbamoyl)-4-(4-propyl-benzenesulfonyl)-3,4,5,6-tetrahydro-2H-[1,2′]bipyrazinyl-5′-carboxylic acid] | < 100 | < 100 | – | –
12 | COc1ccc(S(=O)(=O)N2CCN(C(C)=O)C[C@@H]2C(=O)NCc2ccc(C(C)C)cc2)cc1C(C)(C)C [Example 240, (R)-4-acetyl-1-(3-tert-butyl-4-methoxy-benzenesulfonyl)-piperazine-2-carboxylic acid 4-isopropyl-benzylamide] | < 100 | 100 to 1000 | – | –
13 | O=C(NCc1ccc(OC(F)F)cc1)[C@H]1CN(c2nc3nc(C4CC4)ncc3s2)CCN1S(=O)(=O)c1ccc(OC(F)(F)C(F)F)cc1 [Example 1018, (R)-4-(5-cyclopropyl-thiazolo[4,5-d]pyrimidin-2-yl)-1-[4-(1,1,2,2-tetrafluoro-ethoxy)-benzenesulfonyl]-piperazine-2-carboxylic acid 4-difluoromethoxy-benzylamide] | – | – | < 100 | < 100
14 | COc1ccc(NC(=O)N2CCN(S(=O)(=O)c3ccc(C(F)(F)F)cc3)[C@@H](C(=O)NCc3ccc(C(C)C)cc3)C2)cc1 [Example 277, (R)-4-(4-trifluoromethyl-benzenesulfonyl)-piperazine-1,3-dicarboxylic acid 3-(4-isopropyl-benzylamide) 1-[(4-methoxy-phenyl)-amide]] | 100 to 1000 | > 1000 | – | –
15 | O=C(NCc1ccc(OC(F)(F)F)cc1)[C@H]1CN(c2nc3nc(C4CC4)ncc3s2)CCN1S(=O)(=O)c1ccc(C(F)(F)F)cc1 [Example 983, (R)-4-(5-cyclopropyl-thiazolo[4,5-d]pyrimidin-2-yl)-1-(4-trifluoromethyl-benzenesulfonyl)-piperazine-2-carboxylic acid 4-trifluoromethoxy-benzylamide] | – | – | < 100 | < 100
16 | CCCc1ccc(CNC(=O)[C@H]2CN(c3nc(C)c(S(=O)(=O)NC(C)=O)s3)CCN2S(=O)(=O)c2ccc(OC(F)(F)F)cc2)cc1 [Example 832, (R)-4-(5-acetylsulfamoyl-4-methyl-thiazol-2-yl)-1-(4-trifluoromethoxy-benzenesulfonyl)-piperazine-2-carboxylic acid 4-propyl-benzylamide] | – | – | < 100 | < 100
17 | CC(=O)N1CCN(S(=O)(=O)c2ccc(Oc3cccnc3)cc2)C(C(=O)NCc2ccc(C(F)(F)F)cc2)C1 (stereo not shown) [Example 66, 4-acetyl-1-[4-(pyridin-3-yloxy)-benzenesulfonyl]-piperazine-2-carboxylic acid 4-trifluoromethyl-benzylamide hydrochloride] | > 1000 | > 1000 | – | –
18 | CC(=O)N1CCN(S(=O)(=O)c2ccc(OC(F)(F)F)cc2)[C@@H](C(=O)NCc2ccc(C(C)(C)C#N)cc2)C1 [Example 641, (R)-4-acetyl-1-(4-trifluoromethoxy-benzenesulfonyl)-piperazine-2-carboxylic acid 4-(cyano-dimethyl-methyl)-benzylamide] | 100 to 1000 | 100 to 1000 | – | –
19 | Cc1nc(N2CCN(S(=O)(=O)c3ccc(C(C)C)cc3)[C@@H](C(=O)NCc3ccc(C(C)C)cc3)C2)sc1C(=O)O [Example 344, 2-[(R)-4-(4-isopropyl-benzenesulfonyl)-3-(4-isopropyl-benzylcarbamoyl)-piperazin-1-yl]-4-methyl-thiazole-5-carboxylic acid] | < 100 | < 100 | – | –
20 | CCC(F)(F)c1ccc(CNC(=O)[C@H]2CN(C(=O)Cn3nnc(C(C)C)n3)CCN2S(=O)(=O)c2ccc(OC(F)(F)F)cc2)cc1 [Example 542, (R)-4-[2-(5-isopropyl-tetrazol-2-yl)-acetyl]-1-(4-trifluoromethoxy-benzenesulfonyl)-piperazine-2-carboxylic acid 4-(1,1-difluoro-propyl)-benzylamide] | < 100 | < 100 | – | –
21 | COC(=O)c1sc(N2CCN(S(=O)(=O)c3ccc(C(F)(F)F)cc3)[C@@H](C(=O)NCc3ccc(C(C)C)cc3)C2)nc1C [Example 254, 2-[(R)-3-(4-isopropyl-benzylcarbamoyl)-4-(4-trifluoromethyl-benzenesulfonyl)-piperazin-1-yl]-4-methyl-thiazole-5-carboxylic acid methyl ester] | < 100 | 100 to 1000 | – | –
22 | CCN(CC)c1ccc(CNC(=O)[C@H]2CN(c3nc(C)c(C(=O)O)s3)CCN2S(=O)(=O)c2ccc(OC(F)(F)F)cc2)cc1 [Example 425, 2-[(R)-3-(4-diethylamino-benzylcarbamoyl)-4-(4-trifluoromethoxy-benzenesulfonyl)-piperazin-1-yl]-4-methyl-thiazole-5-carboxylic acid] | < 100 | < 100 | – | –
23 | COc1ccccc1NC(=O)N1CCN(S(=O)(=O)c2ccc(C(F)(F)F)cc2)[C@@H](C(=O)NCc2ccc(C(C)C)cc2)C1 [Example 272, (R)-4-(4-trifluoromethyl-benzenesulfonyl)-piperazine-1,3-dicarboxylic acid 3-(4-isopropyl-benzylamide) 1-[(2-methoxy-phenyl)-amide]] | 100 to 1000 | > 1000 | – | –
